These results are taken from ChEMBL document CHEMBL3044534, “Antitumor and antileishmanial evaluation of novel heterocycles derived from quinazoline scaffold: a molecular modeling approach” (2013).

Broadly, the GI50 is the concentration that inhibits growth by half.

The structures appear in SMILES notation.

What all share (type): functional
Experiment [1] concerns SF-268. Put plainly: Growth inhibition of Homo sapiens (human) SF268 cells after 48 hr by SRB assay. Conditions: SF-268, 48 h. (In SRB staining, fixed cells bind dye roughly in proportion to their protein.)
Experiment [2] concerns Leishmania donovani. The experiment is described as follows: Antileishmanial activity against axenic amastigotes of Leishmania donovani assessed as growth inhibition at 50 uM. Conditions: read-out: GI.
The test system of experiment [3] is NCI-H460. The experiment is described as follows: Growth inhibition of Homo sapiens (human) NCI-H460 cells after 48 hr by SRB assay. To be noted: NCI-H460, 48 h.
Experiment [4] concerns MCF7. The experiment is described as follows: Growth inhibition of Homo sapiens (human) MCF7 cells after 48 hr by SRB assay. To be noted: MCF7, 48 h.
In experiment [5] the test system is Leishmania donovani. Put plainly: Antileishmanial activity against axenic amastigotes of Leishmania donovani assessed as growth inhibition.
The test system of experiment [6] is Leishmania donovani. The experiment is described as follows: Antileishmanial activity against axenic amastigotes of Leishmania donovani assessed as growth inhibition at 1 uM. To be noted: read-out: GI.

`Cc1nc2ccccc2c(=O)n1NC(=O)CCl`: the concentration for 50% growth inhibition (GI50) in experiment [1] is 18.4 µM; in experiment [3], 23.2 µM; in experiment [4], 50.1 µM. Further, in experiment [2], the inhibition of growth at 50 µM was 60%.

`Cc1nc2ccccc2c(=O)n1NC(=S)Nc1ccccc1`: the GI50 in experiment [1] is 56.8 µM; in experiment [5], 12 µM; in experiment [3], 78.6 µM; in experiment [4] it was 64.9 µM. The inhibition of growth at 50 µM in experiment [2] came out at 98%.

On to `Cc1nc2ccccc2c(=O)n1-n1c(C)cc(=O)n(-c2ccccc2)c1=S`, for which the GI50 in experiment [1] worked out at 36.8 µM; in experiment [5], 12 µM; in experiment [3], 43.6 µM; in experiment [4] it was 22.9 µM. Moreover, in experiment [2], the inhibition of growth at 50 µM came to 66%.

`Cc1nc2ccccc2c(=O)n1NC(=O)/C(Cl)=C/c1ccccc1`: the GI50 came to 0.05 µM in experiment [1], 26 µM in experiment [5], 0.02 µM in experiment [3] and 0.03 µM in experiment [4]. In addition, the inhibition of growth at 50 µM in experiment [2] was determined as 80%.

As for `COc1ccc(/C=C(\Cl)C(=O)Nn2c(C)nc3ccccc3c2=O)cc1`, the GI50 in experiment [1] stood at 0.8 µM; in experiment [5], 28 µM; in experiment [3], 0.6 µM; in experiment [4] it was 0.9 µM. The inhibition of growth at 50 µM in experiment [2] was determined as 84%.

As to `Cc1nc2ccccc2c(=O)n1NC(=O)/C(Cl)=C/c1ccc(Cl)cc1`, the GI50 came to 50.8 µM in experiment [1], 18 µM in experiment [5], 38.9 µM in experiment [3] and 70.6 µM in experiment [4]. Further, the inhibition of growth at 50 µM in experiment [2] came to 50%.

As for `Cc1nc2ccccc2c(=O)n1NC1=CSC(=C(C#N)C#N)N1c1ccccc1`, the GI50 in experiment [1] amounted to 60.4 µM; in experiment [5], 18 µM; in experiment [3] it was 32.6 µM; in experiment [4], 40.6 µM. Besides, the inhibition of growth at 50 µM in experiment [2] was 44%.

With `Cc1nc2ccccc2c(=O)n1NC(=O)C1Nc2ccccc2C1=O` (centres undefined), the GI50 stood at 20.3 µM in experiment [1], 13 µM in experiment [5], 14.1 µM in experiment [3] and 11.9 µM in experiment [4]. For the same molecule, the inhibition of growth at 50 µM in experiment [2] was 92%.

For `CC1=CC(C)N(c2ccccc2)C(=S)N1n1c(C)nc2ccccc2c1=O` (centres undefined), the values for the GI50 in experiment [1], in experiment [3] and in experiment [4] were 0.03 µM, 0.2 µM and 0.7 µM, respectively. The inhibition of growth at 50 µM in experiment [2] worked out at 48%.

As for `Cc1nc2ccccc2c(=O)n1/N=C1\SCC(=O)N1c1ccccc1`, the GI50 in experiment [1] was found to be 38.4 µM; in experiment [5] it was 12 µM; in experiment [3] it was 30.6 µM; in experiment [4], 22 µM. Besides, in experiment [2], the inhibition of growth at 50 µM was determined as 44%.

Consider `Cc1nc2ccccc2c(=O)n1/N=c1\scc(N)n1-c1ccccc1`, for which the GI50 in experiment [1] was found to be 22.5 µM; in experiment [5], 10 µM; in experiment [3], 28 µM; in experiment [4], 36 µM. Also, the inhibition of growth at 50 µM in experiment [2] worked out at 96%.

Regarding `CCOC(=O)CNn1c(C)nc2ccccc2c1=O`, the GI50 amounted to 26.8 µM in experiment [1], 10 µM in experiment [5], 22.6 µM in experiment [3] and 20.9 µM in experiment [4]. Also, the inhibition of growth at 50 µM in experiment [2] worked out at 44%.

As to `Cc1nc2ccccc2c(=O)n1NCC(=O)NN`, the GI50 in experiment [1] amounted to 16.7 µM; in experiment [5], 22 µM; in experiment [3], 14.5 µM; in experiment [4], 11.8 µM. Besides, the inhibition of growth at 50 µM in experiment [2] worked out at 58%.

In the case of `Cc1nc2ccccc2c(=O)n1NCC(=O)NNc1ccccc1`, the GI50 amounted to 24.8 µM in experiment [1], 28 µM in experiment [5], 12.9 µM in experiment [3] and 22.6 µM in experiment [4]. For the same molecule, the inhibition of growth at 50 µM in experiment [2] was found to be 22%.

For the molecule `Cc1nc2ccccc2c(=O)n1Nc1cc2ccccc2oc1=O`, the GI50 came out at 22.3 µM in experiment [1], 17.3 µM in experiment [3] and 32 µM in experiment [4]. Moreover, the inhibition of growth at 50 µM in experiment [2] worked out at 70%.

For the molecule `Cc1nc2ccccc2c(=O)n1NCc1nc2ccccc2[nH]1`, the GI50 in experiment [1] is 31.5 µM; in experiment [3], 22 µM; in experiment [4] it was 20 µM. For the same molecule, the inhibition of growth at 50 µM in experiment [2] was 85%.

As to `CCOC(=O)c1c(N)cc(N)n1-n1c(C)nc2ccccc2c1=O`, the GI50 amounted to 0.9 µM in experiment [1], 0.1 µM in experiment [3] and 0.4 µM in experiment [4]. Moreover, in experiment [2], the inhibition of growth at 50 µM amounted to 40%.

Regarding `CCOC(=O)c1c(N)cc(O)n1-n1c(C)nc2ccccc2c1=O`, the GI50 in experiment [1] was 11.5 µM; in experiment [5] it was 18 µM; in experiment [3], 0.9 µM; in experiment [4], 13.1 µM. The inhibition of growth at 50 µM in experiment [2] was found to be 60%.

On to `Cc1nc2ccccc2c(=O)n1Nc1csc(N)n1`, for which the GI50 in experiment [1] was determined as 0.4 µM; in experiment [5], 22 µM; in experiment [3] it was 0.2 µM; in experiment [4], 0.01 µM. The inhibition of growth at 50 µM in experiment [2] came out at 72%.

For `Cc1nc2ccccc2c(=O)n1NC(=O)c1cc2ccccc2o1`, the GI50 in experiment [1] was 22.3 µM; in experiment [5], 14 µM; in experiment [3] it was 12.1 µM; in experiment [4], 10.9 µM. For the same molecule, the inhibition of growth at 50 µM in experiment [2] is 28%.

In the case of `C[C@@H]1[C@H](O)[C@@H](C)/C=C/C=C/C=C/C=C/C=C/C=C/C=C/[C@H](O[C@@H]2O[C@H](C)[C@@H](O)[C@H](N)[C@@H]2O)C[C@@H]2O[C@](O)(C[C@@H](O)C[C@@H](O)[C@H](O)CC[C@@H](O)C[C@@H](O)CC(=O)O[C@H]1C)C[C@H](O)[C@H]2C(=O)O` [AMPHOTERICIN B], the inhibition of growth at 1 µM in experiment [6] came out at 98%.

As to `COc1cccc2c1C(=O)c1c(O)c3c(c(O)c1C2=O)C[C@@](O)(C(=O)CO)C[C@@H]3O[C@H]1C[C@H](N)[C@H](O)[C@H](C)O1` [DOXORUBICIN], the GI50 in experiment [1] stood at 0.09 µM; in experiment [3], 0.09 µM; in experiment [4], 0.04 µM.
